Assay [1] has as its system rabbit serum obtained by immunizing a rabbit with the SARS-CoV strain Frankfurt 1. Type of assay: binding. On the set-up: Binding of a rabbit serum to linear peptides / Binding of a rabbit serum to looped peptides / Rabbit serum linear peptides / Rabbit serum looped peptides / Binding of a rabbit serum to linear peptides of protein N of SARS-CoV Urbani (Rabbit serum linear peptides) / Binding of a rabbit serum to looped/cyclic peptides of protein N of SARS-CoV Urbani (Rabbit serum looped peptides): unit not given here.

Assay [2] has as its system antibodies in sera from SARS patients (sera 1a, 1b, 2, 6, 37, 62, London, SARS-yellow, SARS-green). The assay is classed as binding, human. Set-up: Binding of serum 6 to linear peptides of protein X1 of SARS-CoV Urbani / Binding of serum 37 to linear peptides of protein X1 of SARS-CoV Urbani / Binding of serum 6 to looped/cyclic peptide (PEPSCAN-ELISA) / Binding of serum 37 to looped/cyclic peptide (PEPSCAN-ELISA) / Binding of serum 37 to looped/cyclic peptides of protein X1 of SARS-CoV Urbani / Binding of serum 6 to linear peptides of protein X2 / Binding of serum 37 to linear peptides of protein X2 / Binding of serum 37 to looped/cyclic peptides of protein X2 of SARS-CoV Urbani / Binding of serum 6 to linear peptides of protein M of SARS-CoV Urbani / Binding of serum 37 to linear peptides of protein M of SARS-CoV Urbani / Binding of serum 6 to looped/cyclic peptides of protein M of SARS-CoV Urbani / Binding of serum 37 to looped/cyclic peptides of protein M of SARS-CoV Urbani / Binding of serum 6 to linear peptides of protein X3 of SARS-CoV Urbani / Binding of serum 37 to linear peptides of protein X3 of SARS-CoV Urbani / Binding of serum 37 to looped/cyclic peptides of protein X3 of SARS-CoV Urbani / Binding of serum 6 to linear peptides of protein X4 of SARS-CoV Urbani / Binding of serum 37 to linear peptides of protein X4 of SARS-CoV Urbani / Binding of serum 37 to looped/cyclic peptides of protein X4 of SARS-CoV Urbani / Binding of serum 6 to linear peptides of protein X5 of SARS-CoV Urbani / Binding of serum 37 to linear peptides of protein X5 of SARS-CoV Urbani / Binding of serum 37 to looped/cyclic peptides of protein X5 of SARS-CoV Urbani / Binding of serum 6 to linear peptides of protein N of SARS-CoV Urbani / Binding of serum 37 to linear peptides of protein N of SARS-CoV Urbani / Binding of serum 6 to linear peptide (PEPSCAN-ELISA) / Binding of serum 1a to looped/cyclic peptides of protein N of SARS-CoV Urbani / Binding of serum 1b to looped/cyclic peptides of protein N of SARS-CoV Urbani / Binding of serum 2 to looped/cyclic peptides of protein N of SARS-CoV Urbani / Binding of serum 6 to looped/cyclic peptides of protein N of SARS-CoV Urbani / Binding of serum 37 to looped/cyclic peptides of protein N of SARS-CoV Urbani / Binding of serum 62 to looped/cyclic peptides of protein N of SARS-CoV Urbani / Binding of serum London to looped/cyclic peptides of protein N of SARS-CoV Urbani / Binding of serum SARS-green to looped/cyclic peptides of protein N of SARS-CoV Urbani: unit not given here.

In assay [3] the test system is control sera (pooled serum of ten healthy LUMC hospital workers; commercial negative donor pooled serum from the Dutch bloodbank). The assay is classed as binding, human. Set-up: Binding of Control serum LUMC to linear peptides / Binding of Control serum Blood-bank to linear peptides / Binding of Control serum LUMC to looped peptides / Binding of Control Serum Blood-Bank to Looped peptides / Binding of Control serum LUMC to linear peptides of the protein M of SARS-CoV Urbani / Binding of Control serum Blood-bank to linear peptides of the protein M of SARS-CoV Urbani / Binding of Control serum LUMC to looped peptides of the protein M of SARS-CoV Urbani / Binding of Control Serum Blood-Bank to Looped peptides of the protein M of SARS-CoV Urbani: unit not given here.

Regarding ADGTRHTYQLRARSV, the “Recognition of the peptide by the rabbit serum” value in assay [1] is on record as “recognized”. Besides, in assay [2], the “Binding of serum 1a to linear peptides of protein X4 of SARS-CoV Urbani” value was 0.7, the “Binding of serum 1a to looped/cyclic peptides of protein X4 of SARS-CoV Urbani” value is 0.7, the “Binding of serum 1b to linear peptides of protein X4 of SARS-CoV Urbani” value is 0.6 and the “Binding of serum 1b to looped/cyclic peptides of protein X4 of SARS-CoV Urbani” value is reported as 0.4. In assay [2], the “Binding of serum 2 to linear peptides of protein X4 of SARS-CoV Urbani” value stood at 0.6, the “Binding of serum 2 to looped/cyclic peptides of protein X4 of SARS-CoV Urbani” value amounted to 0.6, the “Binding of serum 6 to linear peptides of protein X4 of SARS-CoV Urbani” value is listed as 0.5 and the “Binding of serum 6 to looped/cyclic peptides of protein X4 of SARS-CoV Urbani” value was 0.7. In assay [2], the “Binding of serum 37 to linear peptides of protein X4 of SARS-CoV Urbani” value was 0.7, the “Binding of serum 37 to looped/cyclic peptides of protein X4 of SARS-CoV Urbani” value is 0.7, the “Binding of serum 62 to linear peptides of protein X4 of SARS-CoV Urbani” value is recorded as 0.7 and the “Binding of serum 62 to looped/cyclic peptides of protein X4 of SARS-CoV Urbani” value was determined as 0.6. Further, in assay [2], the “Binding of serum London to linear peptides of protein X4 of SARS-CoV Urbani” value is listed as 0.7, the “Binding of serum London to looped/cyclic peptides of protein X4 of SARS-CoV Urbani” value stood at 0.3, the “Binding of serum SARS-green to linear peptides of protein X4 of SARS-CoV Urbani” value came out at 0.6 and the “Binding of serum SARS-green to looped/cyclic peptides of protein X4 of SARS-CoV Urbani” value amounted to 0.5. In assay [2], the “Binding of serum SARS-yellow to linear peptides of protein X4 of SARS-CoV Urbani” value is reported as 0.7 and the “Binding of serum SARS-yellow to looped/cyclic peptides of protein X4 of SARS-CoV Urbani” value came to 0.6. Besides, in assay [3], the “Binding of Control Serum Blood-Bank to Looped peptides” value is on record as 0.6, the “Binding of Control serum Blood-bank to linear peptides” value is 0.6, the “Binding of Control serum LUMC to linear peptides” value worked out at 0.6 and the “Binding of Control serum LUMC to looped peptides” value is recorded as 0.6.
With AFACADGTRHTYQLR, in assay [1], the “Rabbit serum linear peptides” value is 0.5 and the “Rabbit serum looped peptides” value is reported as 0.1. Besides, in assay [2], the “Binding of serum 1a to linear peptides of protein X4 of SARS-CoV Urbani” value turned out to be 0.6, the “Binding of serum 1a to looped/cyclic peptides of protein X4 of SARS-CoV Urbani” value is reported as 0.6, the “Binding of serum 1b to linear peptides of protein X4 of SARS-CoV Urbani” value is listed as 0.4 and the “Binding of serum 1b to looped/cyclic peptides of protein X4 of SARS-CoV Urbani” value turned out to be 0.4. For the same sequence, in assay [2], the “Binding of serum 2 to linear peptides of protein X4 of SARS-CoV Urbani” value was 0.4, the “Binding of serum 2 to looped/cyclic peptides of protein X4 of SARS-CoV Urbani” value is 0.8, the “Binding of serum 6 to linear peptides of protein X4 of SARS-CoV Urbani” value was found to be 0.5 and the “Binding of serum 6 to looped/cyclic peptides of protein X4 of SARS-CoV Urbani” value came out at 0.9. Also, in assay [2], the “Binding of serum 37 to linear peptides of protein X4 of SARS-CoV Urbani” value is recorded as 0.6, the “Binding of serum 37 to looped/cyclic peptides of protein X4 of SARS-CoV Urbani” value turned out to be 0.6, the “Binding of serum 62 to linear peptides of protein X4 of SARS-CoV Urbani” value was found to be 0.7 and the “Binding of serum 62 to looped/cyclic peptides of protein X4 of SARS-CoV Urbani” value was 0.5. Further, in assay [2], the “Binding of serum London to linear peptides of protein X4 of SARS-CoV Urbani” value amounted to 0.6, the “Binding of serum London to looped/cyclic peptides of protein X4 of SARS-CoV Urbani” value was 0.4, the “Binding of serum SARS-green to linear peptides of protein X4 of SARS-CoV Urbani” value came out at 0.4 and the “Binding of serum SARS-green to looped/cyclic peptides of protein X4 of SARS-CoV Urbani” value is on record as 0.5. Besides, in assay [2], the “Binding of serum SARS-yellow to linear peptides of protein X4 of SARS-CoV Urbani” value is listed as 0.2 and the “Binding of serum SARS-yellow to looped/cyclic peptides of protein X4 of SARS-CoV Urbani” value is given as 0.4. In addition, in assay [3], the “Binding of Control Serum Blood-Bank to Looped peptides” value was 0.7, the “Binding of Control serum Blood-bank to linear peptides” value amounted to 0.6, the “Binding of Control serum LUMC to linear peptides” value is on record as 0.5 and the “Binding of Control serum LUMC to looped peptides” value came out at 0.8.
As to AGGALIARCWYLHEG, in assay [1], the “Rabbit serum linear peptides” value was determined as 0.5 and the “Rabbit serum looped peptides” value was found to be 0.4. In assay [2], the “Binding of serum 1a to linear peptides of protein X5 of SARS-CoV Urbani” value turned out to be 0.8, the “Binding of serum 1a to looped/cyclic peptides of protein X5 of SARS-CoV Urbani” value amounted to 0.7, the “Binding of serum 1b to linear peptides of protein X5 of SARS-CoV Urbani” value came out at 0.7 and the “Binding of serum 1b to looped/cyclic peptides of protein X5 of SARS-CoV Urbani” value is on record as 0.4. In addition, in assay [2], the “Binding of serum 2 to linear peptides of protein X5 of SARS-CoV Urbani” value is reported as 0.5, the “Binding of serum 2 to looped/cyclic peptides of protein X5 of SARS-CoV Urbani” value turned out to be 0.5, the “Binding of serum 6 to linear peptides of protein X5 of SARS-CoV Urbani” value is recorded as 0.7 and the “Binding of serum 6 to looped/cyclic peptides of protein X5 of SARS-CoV Urbani” value is recorded as 0.5. Further, in assay [2], the “Binding of serum 37 to linear peptides of protein X5 of SARS-CoV Urbani” value was found to be 0.8, the “Binding of serum 37 to looped/cyclic peptides of protein X5 of SARS-CoV Urbani” value is listed as 0.6, the “Binding of serum 62 to linear peptides of protein X5 of SARS-CoV Urbani” value is given as 0.9 and the “Binding of serum 62 to looped/cyclic peptides of protein X5 of SARS-CoV Urbani” value was 0.5. Besides, in assay [2], the “Binding of serum London to linear peptides of protein X5 of SARS-CoV Urbani” value came to 0.7, the “Binding of serum London to looped/cyclic peptides of protein X5 of SARS-CoV Urbani” value was found to be 0.2, the “Binding of serum SARS-green to linear peptides of protein X5 of SARS-CoV Urbani” value is 0.7 and the “Binding of serum SARS-green to looped/cyclic peptides of protein X5 of SARS-CoV Urbani” value is 0.4. Moreover, in assay [2], the “Binding of serum SARS-yellow to linear peptides of protein X5 of SARS-CoV Urbani” value is reported as 0.5 and the “Binding of serum SARS-yellow to looped/cyclic peptides of protein X5 of SARS-CoV Urbani” value worked out at 0.4. In assay [3], the “Binding of Control Serum Blood-Bank to Looped peptides” value came out at 0.7, the “Binding of Control serum Blood-bank to linear peptides” value is given as 0.6, the “Binding of Control serum LUMC to linear peptides” value is on record as 0.5 and the “Binding of Control serum LUMC to looped peptides” value is listed as 0.4.
Take AISPKFTTSLSLHKL: in assay [1], the “Binding of a rabbit serum to linear peptides” value stood at 0.2 and the “Binding of a rabbit serum to looped peptides” value came to 0.4. In addition, in assay [2], the “Binding of serum 1a to linear peptides of protein X2” value is reported as 0.6, the “Binding of serum 1a to looped/cyclic peptides of protein X2 of SARS-CoV Urbani” value came out at 0.6, the “Binding of serum 1b to linear peptides of protein X2” value is 0.5 and the “Binding of serum 1b to looped/cyclic peptides of protein X2 of SARS-CoV Urbani” value is on record as 0.6. Moreover, in assay [2], the “Binding of serum 2 to linear peptides of protein X2” value was 0.5, the “Binding of serum 2 to looped/cyclic peptides of protein X2 of SARS-CoV Urbani” value came out at 0.4, the “Binding of serum 6 to linear peptides of protein X2” value was 0.6 and the “Binding of serum 6 to looped/cyclic peptides of protein X2 of SARS-CoV Urbani” value amounted to 0.8. Besides, in assay [2], the “Binding of serum 37 to linear peptides of protein X2” value turned out to be 0.6, the “Binding of serum 37 to looped/cyclic peptides of protein X2 of SARS-CoV Urbani” value amounted to 0.5, the “Binding of serum 62 to linear peptides of protein X2” value was determined as 0.6 and the “Binding of serum 62 to looped/cyclic peptides of protein X2 of SARS-CoV Urbani” value is on record as 0.7. In addition, in assay [2], the “Binding of serum London to linear peptides of protein X2” value was determined as 0.5, the “Binding of serum London to looped/cyclic peptides of protein X2 of SARS-CoV Urbani” value amounted to 1.1, the “Binding of serum SARS-green to linear peptides of protein X2” value was 0.4 and the “Binding of serum SARS-green to looped/cyclic peptides of protein X2 of SARS-CoV Urbani” value was determined as 0.3. In assay [2], the “Binding of serum SARS-yellow to linear peptides of protein X2” value came to 0.5 and the “Binding of serum SARS-yellow to looped/cyclic peptides of protein X2 of SARS-CoV Urbani” value amounted to 0.4. In addition, in assay [3], the “Binding of Control Serum Blood-Bank to Looped peptides” value turned out to be 0.8, the “Binding of Control serum Blood-bank to linear peptides” value amounted to 0.8, the “Binding of Control serum LUMC to linear peptides” value is reported as 0.6 and the “Binding of Control serum LUMC to looped peptides” value turned out to be 0.6.

The values are drawn from patent publication US20070128217A1 (priority 2003, published 2007).
